The source of these data is patent publication US12377080B2, “Allosteric EGFR inhibitors and methods of use thereof” (Dana-Farber Cancer Institute, Inc., priority 2019, dated 2025).

One test addresses EGFR L858R/T790M (Homo sapiens (Human), UniProt P00533, L858R/T790M). As to the kind of experiment: HTRF-based EGFR biochemical assay (L858R/T790M). The settings on record: 100 μM ATP. As to the method: (§1) EGFR biochemical activity measurements were carried out using the homogeneous time-resolved fluorescence (HTRF) assay (Cisbio). Inhibitors and DMSO normalizations were first dispensed to empty black low-volume 384-well plates (Corning) with D300 digital liquid dispenser (HP). All reactions were carried out at room temperature and solutions were added to plates with a Multidrop Combi Reagent Dispenser (ThermoFisher). The reaction mixture (10 μL final volume) contained 1 μM tyrosine kinase peptide-biotin substrate and mutant EGFR in a reaction buffer (50 mM HEPES pH 7,0, 5 mM MgCl2,1 mM MnCl2, 0.01% BSA, 2 mM TCEP, 0.1 mM NaVO4). Enzyme concentrations were adjusted to accommodate varying kinase activities (L858R 0.1 nM, L858R!T790M 0,02 nM). Enzyme reaction solution (2× concentrations, 5 μL) was added to 384-well plates containing compounds and incubated for 30 mins. Enzyme reactions were initiated with the addition of […] of ATP to a final concentration of 100 μM and reacted for 20 mins. Reactions were quenched with the addition of 10 μL of phospho-tyrosine antibody-Europium(III) cryptate (1-to-180 volume ratio) and Streptavidin-XL665 (46.7 nM) in EDTA-containing detection buffer, then incubated at room temperature for 1 hour, and read with a PHERAstar plate reader (excitation =337 nm, emission =620 nm and 665 nm).
(TR-FRET usually uses a lanthanide donor and a delayed reading to cut background.)

The target of the next test is EGFR L858R (Homo sapiens (Human), UniProt P00533, L858R). Kind of test: HTRF-based EGFR biochemical assay (L858R). The note with it: 100 μM ATP. How it is done:
as §1

Test [1] has as its system EGFR L858R/T790M mutant Ba/F3 Cells. As to the kind of experiment: Ba/F3 cell proliferation (Cell Titer Glo) in combination with cetuximab. The test is classed as cell-based, murine. The settings on record: 72 hours. An excerpt: The EGFR mutant L858R, Del E746_A750, L858R/T790M, Del E746_A750/T790M, L858R/T790MIC797S, and DellT790MIC797S Ba/F3 cells have been previously described (Zhou, W., et al, Nature 462, 2009, 1070-1074). All cell lines were maintained in RPM I 1640 (Cellgro; Mediatech Inc., Herndon, CA) supplemented with 10% FBS, 100 units/mL penicillin, 100 units/mL streptomycin. The EGFR 1941 R mutation was introduced via site directed mutagenesis using the Quick Change Site-Directed Mutagenesis kit (Stratagene; La Jolla, CA) according to the manufacturer's instructions. All constructs were confirmed by DNA sequencing. The constructs were shuttled into the retroviral vector JP1540 using the Cre-recombination system (Agilent Technologies, Santa Clara, CA). Ba/F3 cells were then infected with retrovirus per standard protocols, as described previously (Zhou, et al, Nature 2009). Stable clones were obtained by selection in puromycin (2 μg/ml),
Growth and inhibition of growth was assessed by the Cell Titer Glo assay (Promega, Madison, WI) and was performed according to the manufacturer's instructions. The Cell Titer Glo assay is a luminescence-based method used to determine the number of viable cells based on quantitation of the ATP present, which is directly proportional to the amount of metabolically active cells present. Ba/F3 cells of different EGFR genotypes were exposed to compounds as a single agent or in combination with […] for 72 hours and the number of cells used per experiment was determined empirically as has been previously established (Zhou, et al., Nature 2009). All experimental points were set up in triplicates in 384-well plates and all experiments were repeated at least three times. […] The curves were fitted using a non-linear regression model with a sigmoidal dose response.
(ATP-based viability assays read luminescence as a measure of living cells.)

Structures are written as SMILES.

As a reminder, the IC50 is the point on the concentration scale where inhibition reaches its midpoint.

EGFR L858R, sequence (P00533 25-1210 L858R): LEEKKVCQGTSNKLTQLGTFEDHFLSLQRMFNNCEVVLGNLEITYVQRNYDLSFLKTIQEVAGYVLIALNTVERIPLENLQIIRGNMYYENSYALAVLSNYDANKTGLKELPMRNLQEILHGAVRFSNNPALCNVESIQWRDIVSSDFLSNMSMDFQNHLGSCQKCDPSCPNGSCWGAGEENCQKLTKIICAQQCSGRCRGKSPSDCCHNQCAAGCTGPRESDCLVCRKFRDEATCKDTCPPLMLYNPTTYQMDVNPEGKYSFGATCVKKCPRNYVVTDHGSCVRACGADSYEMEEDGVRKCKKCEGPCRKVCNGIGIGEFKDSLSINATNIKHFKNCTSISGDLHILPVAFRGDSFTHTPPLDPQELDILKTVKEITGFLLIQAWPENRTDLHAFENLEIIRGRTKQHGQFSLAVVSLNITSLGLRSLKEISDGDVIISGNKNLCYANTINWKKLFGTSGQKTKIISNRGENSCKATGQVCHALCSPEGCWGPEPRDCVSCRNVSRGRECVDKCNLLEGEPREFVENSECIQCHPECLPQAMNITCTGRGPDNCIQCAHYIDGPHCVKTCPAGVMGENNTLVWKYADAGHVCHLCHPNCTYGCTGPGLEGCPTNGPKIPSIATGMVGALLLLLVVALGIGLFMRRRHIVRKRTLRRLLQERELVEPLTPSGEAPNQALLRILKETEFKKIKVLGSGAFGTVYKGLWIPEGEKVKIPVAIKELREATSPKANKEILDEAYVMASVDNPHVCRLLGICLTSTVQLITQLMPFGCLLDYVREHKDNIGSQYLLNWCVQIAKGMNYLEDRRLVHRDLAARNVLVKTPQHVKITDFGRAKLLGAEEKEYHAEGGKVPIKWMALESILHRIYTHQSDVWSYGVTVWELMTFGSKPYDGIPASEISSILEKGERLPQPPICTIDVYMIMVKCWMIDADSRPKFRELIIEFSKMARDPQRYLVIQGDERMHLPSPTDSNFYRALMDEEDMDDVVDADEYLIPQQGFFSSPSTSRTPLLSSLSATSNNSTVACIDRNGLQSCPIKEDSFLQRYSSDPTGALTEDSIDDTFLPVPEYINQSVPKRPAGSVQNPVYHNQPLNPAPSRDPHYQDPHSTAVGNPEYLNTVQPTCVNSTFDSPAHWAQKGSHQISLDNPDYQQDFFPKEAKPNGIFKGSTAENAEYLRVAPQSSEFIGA
EGFR L858R/T790M, sequence (P00533 25-1210 T790M/L858R): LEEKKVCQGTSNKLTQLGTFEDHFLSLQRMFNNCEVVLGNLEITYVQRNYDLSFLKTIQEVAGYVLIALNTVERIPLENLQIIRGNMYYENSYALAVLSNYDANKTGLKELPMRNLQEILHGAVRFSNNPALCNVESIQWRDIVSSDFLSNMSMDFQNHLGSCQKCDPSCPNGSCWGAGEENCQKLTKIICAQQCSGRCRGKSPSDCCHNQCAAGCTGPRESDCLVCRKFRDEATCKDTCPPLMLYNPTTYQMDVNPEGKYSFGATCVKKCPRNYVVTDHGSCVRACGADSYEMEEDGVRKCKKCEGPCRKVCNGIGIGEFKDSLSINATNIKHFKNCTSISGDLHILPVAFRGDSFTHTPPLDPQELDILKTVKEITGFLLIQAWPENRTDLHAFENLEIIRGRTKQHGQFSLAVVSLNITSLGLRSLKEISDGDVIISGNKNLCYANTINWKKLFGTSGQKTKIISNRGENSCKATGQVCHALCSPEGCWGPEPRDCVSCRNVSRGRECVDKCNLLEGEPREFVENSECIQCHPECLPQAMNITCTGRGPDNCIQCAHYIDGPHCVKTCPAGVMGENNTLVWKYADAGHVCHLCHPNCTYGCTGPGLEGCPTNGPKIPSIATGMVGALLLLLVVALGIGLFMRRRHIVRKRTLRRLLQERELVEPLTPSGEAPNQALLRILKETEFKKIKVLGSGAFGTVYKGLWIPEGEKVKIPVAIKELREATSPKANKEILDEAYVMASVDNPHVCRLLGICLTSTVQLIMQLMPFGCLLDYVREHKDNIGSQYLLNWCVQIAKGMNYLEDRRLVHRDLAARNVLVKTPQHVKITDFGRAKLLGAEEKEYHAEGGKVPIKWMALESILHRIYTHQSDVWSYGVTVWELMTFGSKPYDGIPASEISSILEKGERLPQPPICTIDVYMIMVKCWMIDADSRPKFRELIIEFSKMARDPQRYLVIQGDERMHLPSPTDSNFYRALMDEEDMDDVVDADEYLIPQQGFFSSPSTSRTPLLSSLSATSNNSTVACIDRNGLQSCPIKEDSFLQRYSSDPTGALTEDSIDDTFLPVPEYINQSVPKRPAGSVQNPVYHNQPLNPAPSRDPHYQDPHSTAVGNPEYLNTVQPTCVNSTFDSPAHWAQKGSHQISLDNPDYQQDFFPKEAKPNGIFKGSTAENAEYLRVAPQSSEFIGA

In the case of `CN1CCN(c2ccc(-c3cnc4c(c3)C(=O)N(C(C(=O)Nc3nccs3)c3cccc(F)c3)C4)cn2)CC1` (centres unmarked) [Compound 8, 2-(3-fluorophenyl)-2-(3-(6-(4-methylpiperazin-1-yl)pyridin-3-yl)-5-oxo-5,7-dihydro-6H-pyrrolo[3,4-b]pyridin-6-yl)-N-(thiazol-2-yl)acetamide], the figures for the 50% inhibitory concentration (IC50) (against EGFR L858R/T790M; at EGFR L858R; in test [1]) were 1 nM, 0.02 µM and 200 nM, respectively.

On to `O=C(Nc1nccs1)C(c1cccc(F)c1)N1Cc2ncc(Br)cc2C1=O` (centres unmarked) [Compound 2, 2-(3-bromo-5-oxo-5,7-dihydro-6H-pyrrolo[3,4-b]pyridin-6-yl)-2-(3-fluorophenyl)-N-(thiazol-2-yl)acetamide], for which the IC50 in test [1] stood at 380 nM.

In the case of `CN1CCC(c2ccc(-c3cnc4c(c3)C(=O)N(C(C(=O)Nc3nccs3)c3cccc(F)c3)C4)cn2)CC1` (centres unmarked) [Compound 18, 2-(3-fluorophenyl)-2-(3-(6-(1-methylpiperidin-4-yl)pyridin-3-yl)-5-oxo-5,7-dihydro-6H-pyrrolo[3,4-b]pyridin-6-yl)-N-(thiazol-2-yl)acetamide], the IC50 against EGFR L858R/T790M is 9 nM; against EGFR L858R, 0.126 µM; in test [1], 220 nM.

Take `O=C(Nc1nccs1)C(c1cccc(F)c1)N1Cc2ccc(Br)nc2C1=O` (centres unmarked) [Compound 4, 2-(2-bromo-7-oxo-5,7-dihydro-6H-pyrrolo[3,4-b]pyridin-6-yl)-2-(3-fluorophenyl)-N-(thiazol-2-yl)acetamide]: the IC50 in test [1] worked out at 1760 nM.

`CN1CCC(c2ccc(-c3ccc4c(n3)C(=O)N(C(C(=O)Nc3nccs3)c3cccc(F)c3)C4)c(F)c2)CC1` (centres unmarked) [Compound 19, 2-(2-(2-fluoro-4-(1-methyl-piperidin-4-yl)phenyl)-7-oxo-5,7-dihydro-6H-pyrrolo[3,4-b]pyridin-6-yl)-2-(3-fluoro-phenyl)-N-(thiazol-2-yl)-acetamide]: the concentration for half-maximal inhibition (IC50) came to 0.7 nM against EGFR L858R/T790M, 0.004 µM against EGFR L858R and 30 nM in test [1].

For `CN1CCC(c2ccc(-c3cnc4c(c3)C(=O)N(C(C(=O)Nc3nccs3)c3cccc(F)c3)C4)cc2)CC1` (centres unmarked) [Compound 9, 2-(3-fluorophenyl)-2-(3-(4-(1-methylpiperidin-4-yl)phenyl)-5-oxo-5,7-dihydro-6H-pyrrolo-[3,4-b]pyridin-6-yl)-N-(thiazol-2-yl)acetamide], the IC50 against EGFR L858R/T790M is 1 nM; against EGFR L858R it was 0.005 µM; in test [1], 10 nM.

Turning to `CN1CCC(c2ccc(-c3ccc4c(n3)C(=O)N(C(C(=O)Nc3nccs3)c3cccc(F)c3)C4)cc2F)CC1` (centres unmarked) [Compound 20, 2-(2-(3-fluoro-4-(1-methyl-piperidin-4-yl)phenyl)-7-oxo-5,7-dihydro-6H-pyrrolo[3,4-b]pyridin-6-yl)-2-(3-fluoro-phenyl)-N-(thiazol-2-yl)-acetamide], the results for the 50% inhibitory concentration (IC50) (at EGFR L858R/T790M; against EGFR L858R; in test [1]) were 1 nM, 0.005 µM and 20 nM, respectively.

`CN1CCN(c2ccc(-c3ccc4c(n3)C(=O)N(C(C(=O)Nc3nccs3)c3cccc(F)c3)C4)cc2)CC1` (centres unmarked) [Compound 14, 2-(3-fluorophenyl)-2-(2-(4-(4-methylpiperazin-1-yl)phenyl)-7-oxo-5,7-dihydro-6H-pyrrolo-[3,4-b]pyridin-6-yl)-N-(thiazol-2-yl)acetamide]: the IC50 against EGFR L858R/T790M turned out to be 4 nM; against EGFR L858R, 0.032 µM; in test [1] it was 120 nM.

Turning to `CN1CCC(c2ccc(-c3ccc4c(n3)C(=O)N(C(C(=O)Nc3nccs3)c3cccc(F)c3)C4)cn2)CC1` (centres unmarked) [Compound 17, 2-(3-fluorophenyl)-2-(2-(6-(1-methylpiperidin-4-yl)pyridin-3-yl)-7-oxo-5,7-dihydro-6H-pyrrolo[3,4-b]pyridin-6-yl)-N-(thiazol-2-yl)acetamide], the IC50 against EGFR L858R/T790M worked out at 7 nM; against EGFR L858R it was 0.036 µM; in test [1], 140 nM.

Consider `CN1CCN(c2ccc(-c3cc4c(cn3)CN(C(C(=O)Nc3nccs3)c3cccc(F)c3)C4=O)cc2)CC1` (centres unmarked) [Compound 7, 2-(3-fluorophenyl)-2-(6-(4-(4-methylpiperazin-1-yl)phenyl)-1-oxo-1,3-dihydro-2H-pyrrolo-[3,4-c]pyridin-2-yl)-N-(thiazol-2-yl)acetamide], for which the IC50 worked out at 10 nM at EGFR L858R/T790M, 0.301 µM against EGFR L858R and 480 nM in test [1].

Regarding `CN1CCC(c2ccc(-c3ccc4c(n3)C(=O)N(C(C(=O)Nc3nccs3)c3cccc(F)c3)C4)cc2)CC1` (centres unmarked) [Compound 13, 2-(3-fluorophenyl)-2-(2-(4-(1-methylpiperidin-4-yl)phenyl)-7-oxo-5,7-dihydro-6H-pyrrolo-[3,4-b]pyridin-6-yl)-N-(thiazol-2-yl)acetamide], the half-inhibitory concentration (IC50) at EGFR L858R/T790M is 1 nM; against EGFR L858R it was 0.007 µM; in test [1], 20 nM.

Turning to `CN1CCC(c2ccc(-c3cc4c(cn3)CN(C(C(=O)Nc3nccs3)c3cccc(F)c3)C4=O)cc2)CC1` (centres unmarked) [Compound 6, 2-(3-fluorophenyl)-2-(6-(4-(1-methylpiperidin-4-yl)phenyl)-1-oxo-1,3-dihydro-2H-pyrrolo-[3,4-c]pyridin-2-yl)-N-(thiazol-2-yl)acetamide], the IC50 against EGFR L858R/T790M was 6 nM; on EGFR L858R, 0.06 µM; in test [1], 130 nM.

As to `CN1CCN(c2ccc(-c3cnc4c(c3)C(=O)N(C(C(=O)Nc3ccccn3)c3cccc(F)c3)C4)cn2)CC1` (centres unmarked) [Compound 12, 2-(3-fluorophenyl)-2-(3-(6-(4-methylpiperazin-1-yl)pyridin-3-yl)-5-oxo-5,7-dihydro-6H-pyrrolo[3,4-b]pyridin-6-yl)-N-(pyridin-2-yl)acetamide], the values for the IC50 (against EGFR L858R/T790M; against EGFR L858R (cells printed in μM); in test [1]) were 41 nM, > 1 µM and 1910 nM, respectively.

In the case of `CN1CCC(c2ccc(-c3ccc4c(n3)C(=O)N(C(C(=O)Nc3nccs3)c3cccc(F)c3)C4)cc2)C1` (centres unmarked) [Compound 16, 2-(3-fluorophenyl)-2-(2-(4-(1-methylpyrrolidin-3-yl)phenyl)-7-oxo-5,7-dihydro-6H-pyrrolo-[3,4-b]pyridin-6-yl)-N-(thiazol-2-yl)acetamide], the IC50 against EGFR L858R/T790M amounted to 1 nM; against EGFR L858R, 0.006 µM; in test [1], 40 nM.

Take `O=C(Nc1ccccn1)C(c1cccc(F)c1)N1Cc2ncc(Br)cc2C1=O` (centres unmarked) [Compound 3, 2-(3-bromo-5-oxo-5,7-dihydro-6H-pyrrolo[3,4-b]pyridin-6-yl)-2-(3-fluorophenyl)-N-(pyridin-2-yl)acetamide]: in test [1], the half-maximal inhibitory concentration (IC50) worked out at 2370 nM.

Take `O=C(Nc1nccs1)C(c1cccc(F)c1)N1Cc2cnc(Br)cc2C1=O` (centres unmarked) [Compound 1, 2-(6-bromo-1-oxo-1,3-dihydro-2H-pyrrolo[3,4-c]pyridin-2-yl)-2-(3-fluorophenyl)-N-(thiazol-2-yl)acetamide]: the IC50 in test [1] amounted to 5480 nM.

Consider `CN1CCC(c2ccc(-c3cnc4c(c3)C(=O)N(C(C(=O)Nc3ccccn3)c3cc(F)ccc3O)C4)cc2)CC1` (centres unmarked) [Compound 22, 2-(5-fluoro-2-hydroxyphenyl)-2-(3-(4-(1-methylpiperidin-4-yl)phenyl)-5-oxo-5,7-dihydro-6H-pyrrolo[3,4-b]pyridin-6-yl)-N-(pyridin-2-yl)acetamide], for which the IC50 against EGFR L858R/T790M is 1 nM; against EGFR L858R it was 0.005 µM; in test [1] it was 30 nM.

As for `CN1CCC(c2ccc(-c3cnc4c(c3)C(=O)N(C(C(=O)Nc3nccs3)c3cccc(F)c3)C4)cc2)C1` (centres unmarked) [Compound 11, 2-(3-fluorophenyl)-2-(3-(4-(1-methylpyrrolidin-3-yl)phenyl)-5-oxo-5,7-dihydro-6H-pyrrolo-[3,4-b]pyridin-6-yl)-N-(thiazol-2-yl)acetamide], the 50% inhibitory concentration (IC50) on EGFR L858R/T790M was 3 nM; on EGFR L858R it was 0.027 µM; in test [1], 50 nM.

For the molecule `O=C(Nc1ccccn1)C(c1cccc(F)c1)N1Cc2ccc(Br)nc2C1=O` (centres unmarked) [Compound 5, 2-(2-bromo-7-oxo-5,7-dihydro-6H-pyrrolo[3,4-b]pyridin-6-yl)-2-(3-fluorophenyl)-N-(pyridin-2-yl)acetamide], the IC50 in test [1] is > 10000 nM.
